Common to all, as to experiment: apparent sialyltransferase kinetics
For one series, the target named is Psp2,6ST(15–501)-His6 (Photobacterium sp. JT-ISH-224, UniProt A8QYL1). Format: biochemical. The following applies: read-out: Psp2,6ST(15-501)-His6; acceptor; donor CMP-Neu5Ac; apparent value.
The target of the next series is T1, His6-Pd2,6ST(16–497) (Photobacterium damselae, UniProt O66375).
T1 sequence (O66375 16-497): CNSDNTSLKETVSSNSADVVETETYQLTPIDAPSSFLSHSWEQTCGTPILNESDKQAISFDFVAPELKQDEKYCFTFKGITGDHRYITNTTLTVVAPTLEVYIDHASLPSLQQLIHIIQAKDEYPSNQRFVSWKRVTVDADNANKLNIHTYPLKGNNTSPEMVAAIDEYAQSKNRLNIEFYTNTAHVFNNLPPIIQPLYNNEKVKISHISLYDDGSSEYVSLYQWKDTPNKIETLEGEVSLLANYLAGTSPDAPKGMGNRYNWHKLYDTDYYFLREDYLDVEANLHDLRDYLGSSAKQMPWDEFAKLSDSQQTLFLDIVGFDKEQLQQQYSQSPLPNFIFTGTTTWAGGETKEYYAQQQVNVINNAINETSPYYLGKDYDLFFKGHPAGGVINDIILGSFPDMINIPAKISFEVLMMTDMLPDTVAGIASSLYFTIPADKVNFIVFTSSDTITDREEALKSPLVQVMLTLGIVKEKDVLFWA
Type of series: biochemical. The following applies: read-out: His6-Pd2,6ST(16-497); acceptor; donor CMP-Neu5Ac; apparent value.

Substrate in series [1]: Cc1cc(=O)oc2cc(O[C@@H]3O[C@H](CO)[C@@H](O[C@@H]4O[C@H](CO)[C@H](O)[C@H](O)[C@H]4O)[C@H](O)[C@H]3O)ccc12
Type of series: biochemical, Photobacterium sp. JT-ISH-224. The settings on record: acceptor; donor CMP-Neu5Ac; apparent value; pH 2.6.

Consider `CC(=O)N[C@H]1[C@@H](O[C@H](C)[C@H](N)C(=O)O)O[C@H](CO)[C@H](O)[C@@H]1O` [compound 13, GalNAcαThr], for which the Km at Psp2,6ST(15–501)-His6 was 5.9 ± 1.6 mM; at His6-Pd2,6ST(16–497) it was 10 ± 1 mM.
For GalNAcα2AA [compound 11], in that order: 9.5 ± 2.7 mM and 51 ± 5 mM.
In the same order, the values of `CC(=O)N[C@H]1[C@@H](OC[C@H](N)C(=O)O)O[C@H](CO)[C@H](O)[C@@H]1O` [compound 12, GalNAcαSer] are 1.4 ± 0.1 mM and 1.6 ± 0.2 mM.

B1: Psp2,6ST(15–501)-His6 (Photobacterium sp. JT-ISH-224) (protein)
chain: CNNSEENTQSIIKNDINKTIIDEEYVNLEPINQSNISFTKHSWVQTCGTQQLLTEQNKESISLSVVAPRLDDDEKYCFDFNGVSNKGEKYITKVTLNVVAPSLEVYVDHASLPTLQQLMDIIKSEEENPTAQRYIAWGRIVPTDEQMKELNITSFALINNHTPADLVQEIVKQAQTKHRLNVKLSSNTAHSFDNLVPILKELNSFNNVTVTNIDLYDDGSAEYVNLYNWRDTLNKTDNLKIGKDYLEDVINGINEDTSNTGTSSVYNWQKLYPANYHFLRKDYLTLEPSLHELRDYIGDSLKQMQWDGFKKFNSKQQELFLSIVNFDKQKLQNEYNSSNLPNFVFTGTTVWAGNHEREYYAKQQINVINNAINESSPHYLGNSYDLFFKGHPGGGIINTLIMQNYPSMVDIPSKISFEVLMMTDMLPDAVAGIASSLYFTIPAEKIKFIVFTSTETITDRETALRSPLVQVMIKLGIVKEENVLFWA
What is called kcat is the maximal rate divided by the concentration of active sites. In general, kcat/Km refers to the turnover number divided by the Michaelis constant. As for B1, in series [1], the Km is 0.36 ± 0.07 mM, the catalytic constant (kcat) was determined as 1.67 ± 0.167 s⁻¹ and the kcat/Km stood at 4830 M⁻¹ s⁻¹.

These data come from article PMC3201767 (Chemical communications (Cambridge, England), 2011).
